From patent US9284286B2, “Specific carboxamides as KCNQ2/3 modulators” (GRÜNENTHAL GMBH, priority 2012, dated 2016)

Target: T1, KCNQ2/3 channels (Homo sapiens, UniProt O43525+O43526)
T1 construct: expressed in transfected cells; host or cells: CHO-K1
Experiment: Fluorescence assay using a voltage sensitive dye (fluorimetry)
Type: cell-based
Conditions: CHO-K1 cells expressing KCNQ2/3 channels; for Emax: relative to retigabine = 100%, read-out: Fluorimetry % Efficacy (retigabine = 100%); for EC50: voltage-sensitive dye, KCl depolarisation, read-out: Fluorimetry EC50/IC50
Procedure: Pharmacological Experiments Fluorescence Assay Using a Voltage Sensitive Dye (Fluorimetry)
Human CHO-K1 cells expressing KCNQ2/3 channels are cultivated adherently at 37° C., 5% CC2 and 95% humidity in cell culture bottles (e.g. 80 cm^2 TC flasks, Nunc) with DMEM-high glucose (Sigma Aldrich, D7777) including 10% FCS (PAN Biotech, e.g. 3302-P270521) or alternatively MEM Alpha Medium (1×, liquid, Invitrogen, #22571), 10% fetal calf serum (FCS) (Invitrogen, #10270-106, heat-inactivated) and the necessary selection antibiotics.
Before being sown out for the measurements, the cells are washed with 1×DPBS buffer Ca^2+/Mg^2+-free (e.g. Invitrogen, #14190-094) and detached from the bottom of the culture vessel by using Accutase (PAA Laboratories, #L11-007) (incubation with Accutase for 15 min at 37° C.). The cell number is determined using a CASY™ cell counter (TCC, Schärfe System). Depending on the optimal density for each individual cell line, 20,000-30,000 cells/well/100 μl are seeded onto 96-well Corning™ CeIIBIND™ assay plates (Flat Clear Bottom Black Polystyrene Microplates, #3340). Freshly seeded cells are then left to settle for one hour at room temperature, followed by incubation for 24 hours at 37° C., 5% CO2 and 95% humidity.
The voltage-sensitive fluorescent dye from the Membrane Potential Assay Kit (Red™ Bulk format part R8123 for FLIPR, MDS Analytical Technologies™) is prepared by dissolving the contents of one vessel Membrane Potential Assay Kit Red Component A in 200 ml of extracellular buffer (ES buffer, 120 mM NaCl, 1 mM KCl, 10 mM HEPES, 2 mM CaCl2, 2 mM MgCl2, 10 mM glucose; pH 7.4). After removal of the nutrient medium, the cells are washed once with 200 μl of ES buffer, then loaded for 45 min at room temperature in 100 μl of dye solution in the dark.
Fluorescence measurements are carried out in a BMG Labtech FLUOstar™, BMG Labtech NOVOstar™ or BMG Labtech POLARstar™ instrument (525 nm excitation, 560 nm emission, Bottom Read mode). After incubation with the dye, 50 μl of the test substances in the desired concentrations, or 50 μl of ES buffer for control purposes, are applied to the wells of the assay plate and incubated for 30 min at room temperature while being shielded from light. The fluorescence intensity of the dye is then measured for 5 min and the fluorescence value F1 of each well is thus determined at a given, constant time. 15 μl of a KCl solution are then added to each well (final concentration of potassium ions 92 mM). The change in fluorescence intensity is subsequently monitored until all the relevant values have been obtained (mainly 5-30 min). At a given time post KCl application, a fluorescence value F2 is determined, in this case at the time of the fluorescence peak.
For calculation, the fluorescence intensity F2 is corrected for the fluorescence intensity F1, and the activity (ΔF/F) of the target compound on the potassium channel is determined as follows:
In order to determine whether a substance has agonistic activity,
[formula] can be related to
[formula] of control wells.
[formula] is determined by adding to the well only the buffer solution instead of the test substance, determining the value F1K of the fluorescence intensity, adding the potassium ions as described above, and measuring a value F2K of the fluorescence intensity. F2K and F1K are then calculated as follows: […]
A substance has an agonistic activity on the potassium channel if
[formula] is greater than
Independently of the comparison of
[formula] it is possible to conclude that a target compound has agonistic activity if
[formula] increases dose dependently.
Calculations of EC50 and IC50 values are carried out with the aid of ‘Prism v4.0’ software (GraphPad Software™).

| Structure (SMILES) | Emax | EC50 |
| --- | --- | --- |
| O=C(NCc1ccc(F)cc1)c1cncnc1SCCC(F)(F)c1ccc(F)cc1 [Example 11, 4-[[3,3-Difluoro-3-(4-fluorophenyl)-propyl]sulfanyl]-N-[(4-fluorophenyl)-methyl]-pyrimidine-5-carboxylic acid amide] | 112% | 51 nM |
| Cc1nc(SCCC(F)(F)c2ccc(F)cc2)c(C(=O)NCc2ccc(F)cc2)s1 [Example 15, 4-[[3,3-Difluoro-3-(4-fluorophenyl)-propyl]sulfanyl]-N-[(4-fluorophenyl)-methyl]-2-methyl-thiazole-5-carboxylic acid amide] | 83% | 231 nM |
| O=C(NCc1ccc(F)cc1)c1cnccc1SCCC(F)(F)c1ccc(F)cc1 [Example 6, 4-[[3,3-Difluoro-3-(4-fluorophenyl)-propyl]sulfanyl]-N-[(4-fluorophenyl)-methyl]-pyridine-3-carboxylic acid amide] | 121% | 563 nM |
| CC(C)(C)CCNC(=O)c1ccccc1SCCCc1ccc(F)cc1 [Example 2, N-(3,3-Dimethyl-butyl)-2-[3-(4-fluorophenyl)-propylsulfanyl]-benzamide] | 186% | 501 nM |
| O=C(NCc1ccc(F)cc1)c1ccnnc1SCCC(F)(F)c1ccc(F)cc1 [Example 13, 3-[[3,3-Difluoro-3-(4-fluorophenyl)-propyl]sulfanyl]-N-[(4-fluorophenyl)-methyl]-pyridazine-4-carboxylic acid amide] | 100% | 264 nM |

The next lines start with the values.

| Emax | EC50 | Structure (SMILES) |
| --- | --- | --- |
| 203% | 427 nM | CC(C)CCNC(=O)c1ccnnc1SCCC(F)(F)c1ccc(F)cc1 [Example 12, 3-[[3,3-Difluoro-3-(4-fluorophenyl)-propyl]sulfanyl]-N-(3-methyl-butyl)-pyridazine-4-carboxylic acid amide] |
| 203% | 156 nM | CC(C)CCNC(=O)c1ccccc1SCCC(F)(F)c1ccc(F)cc1 [Example 1, 2-[[3,3-Difluoro-3-(4-fluorophenyl)-propyl]sulfanyl]-N-(3-methyl-butyl)-benzamide] |
| 118% | 1590 nM | CC(C)CCNC(=O)c1ncccc1SCCC(F)(F)c1ccc(F)cc1 [Example 3, 3-[[3,3-Difluoro-3-(4-fluorophenyl)-propyl]sulfanyl]-N-(3-methyl-butyl)-pyridine-2-carboxylic acid amide] |
| 199% | 521 nM | CC(C)CCNC(=O)c1nccnc1SCCC(F)(F)c1ccc(F)cc1 [Example 9, 3-[[3,3-Difluoro-3-(4-fluorophenyl)-propyl]sulfanyl]-N-(3-methyl-butyl)-pyrazine-2-carboxylic acid amide] |
| 211% | 61 nM | CC(C)CCNC(=O)c1cncnc1SCCC(F)(F)c1ccc(F)cc1 [Example 10, 4-[[3,3-Difluoro-3-(4-fluorophenyl)-propyl]sulfanyl]-N-(3-methyl-butyl)-pyrimidine-5-carboxylic acid amide] |
| 197% | 1400 nM | CC(C)CCNC(=O)c1ccncc1SCCC(F)(F)c1ccc(F)cc1 [Example 7, 3-[[3,3-Difluoro-3-(4-fluorophenyl)-propyl]sulfanyl]-N-(3-methyl-butyl)-pyridine-4-carboxylic acid amide] |
| 228% | 849 nM | CC(C)CCNC(=O)c1cnccc1SCCC(F)(F)c1ccc(F)cc1 [Example 5, 4-[[3,3-Difluoro-3-(4-fluorophenyl)-propyl]sulfanyl]-N-(3-methyl-butyl)-pyridine-3-carboxylic acid amide] |
